# According to ChEMBL document CHEMBL1201862, “PubChem BioAssay data set” (2004):
# Calls of active or inactive are those of the source.
# Experiments:
# [1] = biological target: T1, RNA-binding protein pos-1 (Caenorhabditis elegans, UniProt G5EF15); experiment: disruptors of C. elegans POS-1 RNA interaction – biochemical, fluorescence polarization, dose response (AID 1964);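 further: purified POS-1 fused to maltose binding protein made in E. coli; potency of compounds blocking POS-1 binding to fluorescent RNA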
# T1 sequence (G5EF15 whole entry): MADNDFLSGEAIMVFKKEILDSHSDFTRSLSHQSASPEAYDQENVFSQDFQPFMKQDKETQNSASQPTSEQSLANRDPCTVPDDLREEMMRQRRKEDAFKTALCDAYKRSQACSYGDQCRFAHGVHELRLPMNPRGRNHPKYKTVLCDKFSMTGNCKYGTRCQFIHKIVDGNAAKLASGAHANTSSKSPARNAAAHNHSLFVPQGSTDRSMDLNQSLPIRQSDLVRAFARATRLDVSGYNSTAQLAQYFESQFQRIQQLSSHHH
# [2] = biological target: T2, Zinc finger protein mex-5 (Caenorhabditis elegans, UniProt Q9XUB2); experiment: potency of MEX-5 RNA-binding blockers – biochemical, C. elegans, fluorescence polarization, dose response (AID 1960)
# T2 sequence (Q9XUB2 whole entry): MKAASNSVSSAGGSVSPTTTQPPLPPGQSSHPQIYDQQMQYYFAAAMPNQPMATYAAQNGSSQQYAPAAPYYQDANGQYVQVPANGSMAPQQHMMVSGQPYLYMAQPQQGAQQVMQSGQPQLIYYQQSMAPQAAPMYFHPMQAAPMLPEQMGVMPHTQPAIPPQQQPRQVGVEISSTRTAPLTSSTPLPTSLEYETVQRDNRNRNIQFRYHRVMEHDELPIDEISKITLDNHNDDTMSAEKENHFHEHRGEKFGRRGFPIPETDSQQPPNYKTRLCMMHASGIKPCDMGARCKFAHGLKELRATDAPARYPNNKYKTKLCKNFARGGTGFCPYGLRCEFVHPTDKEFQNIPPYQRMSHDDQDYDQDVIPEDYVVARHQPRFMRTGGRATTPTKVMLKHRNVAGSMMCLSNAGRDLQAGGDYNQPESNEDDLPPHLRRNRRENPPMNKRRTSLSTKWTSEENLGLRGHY
# Large T antigen = Large T antigen (Simian virus 40, UniProt P03070); format: functional, Betapolyomavirus macacae;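 further: Confirmatory-stage PubChem screen for compounds that inhibit SV40 T antigen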
# Chain of Large T antigen (P03070 whole entry, the tested form may be a part): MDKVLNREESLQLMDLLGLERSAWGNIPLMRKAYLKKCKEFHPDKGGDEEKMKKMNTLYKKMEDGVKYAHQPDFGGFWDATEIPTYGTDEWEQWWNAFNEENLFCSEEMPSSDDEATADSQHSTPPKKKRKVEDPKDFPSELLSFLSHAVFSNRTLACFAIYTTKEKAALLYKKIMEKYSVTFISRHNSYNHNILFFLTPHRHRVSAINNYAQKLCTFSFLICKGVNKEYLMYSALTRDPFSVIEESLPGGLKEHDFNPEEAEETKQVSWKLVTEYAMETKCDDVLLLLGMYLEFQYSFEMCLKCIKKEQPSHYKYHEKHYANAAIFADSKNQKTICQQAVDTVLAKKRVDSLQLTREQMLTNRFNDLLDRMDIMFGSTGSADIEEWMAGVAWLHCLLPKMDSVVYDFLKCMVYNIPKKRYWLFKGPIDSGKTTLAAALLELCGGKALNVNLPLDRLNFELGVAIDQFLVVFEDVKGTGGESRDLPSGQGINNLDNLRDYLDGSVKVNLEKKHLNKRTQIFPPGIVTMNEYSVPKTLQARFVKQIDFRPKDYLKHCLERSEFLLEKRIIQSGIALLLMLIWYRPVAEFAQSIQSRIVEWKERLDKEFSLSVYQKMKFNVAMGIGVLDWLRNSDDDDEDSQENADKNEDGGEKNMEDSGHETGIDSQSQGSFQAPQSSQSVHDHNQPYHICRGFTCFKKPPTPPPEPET
# [3] = biological target: T3, Carboxy-terminal domain RNA polymerase II polypeptide A small phosphatase 1 (Homo sapiens, UniProt Q9GZU7); experiment: CTDSP1 inhibitors, concentration-response, biochemical, absorbance readout, ultra-high-throughput screen actives (AID 540297); format: functional
# T3 sequence (Q9GZU7 whole entry): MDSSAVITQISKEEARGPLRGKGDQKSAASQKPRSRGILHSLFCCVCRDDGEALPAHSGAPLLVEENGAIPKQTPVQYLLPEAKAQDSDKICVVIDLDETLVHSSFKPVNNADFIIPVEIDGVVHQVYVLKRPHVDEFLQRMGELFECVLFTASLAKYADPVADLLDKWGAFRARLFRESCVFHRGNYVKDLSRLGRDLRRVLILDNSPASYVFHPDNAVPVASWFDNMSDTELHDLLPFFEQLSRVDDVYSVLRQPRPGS
# Protein skinhead-1 = biological target: T4, Protein skinhead-1 (Caenorhabditis elegans, UniProt P34707); format: functional
# T4 sequence (P34707 whole entry): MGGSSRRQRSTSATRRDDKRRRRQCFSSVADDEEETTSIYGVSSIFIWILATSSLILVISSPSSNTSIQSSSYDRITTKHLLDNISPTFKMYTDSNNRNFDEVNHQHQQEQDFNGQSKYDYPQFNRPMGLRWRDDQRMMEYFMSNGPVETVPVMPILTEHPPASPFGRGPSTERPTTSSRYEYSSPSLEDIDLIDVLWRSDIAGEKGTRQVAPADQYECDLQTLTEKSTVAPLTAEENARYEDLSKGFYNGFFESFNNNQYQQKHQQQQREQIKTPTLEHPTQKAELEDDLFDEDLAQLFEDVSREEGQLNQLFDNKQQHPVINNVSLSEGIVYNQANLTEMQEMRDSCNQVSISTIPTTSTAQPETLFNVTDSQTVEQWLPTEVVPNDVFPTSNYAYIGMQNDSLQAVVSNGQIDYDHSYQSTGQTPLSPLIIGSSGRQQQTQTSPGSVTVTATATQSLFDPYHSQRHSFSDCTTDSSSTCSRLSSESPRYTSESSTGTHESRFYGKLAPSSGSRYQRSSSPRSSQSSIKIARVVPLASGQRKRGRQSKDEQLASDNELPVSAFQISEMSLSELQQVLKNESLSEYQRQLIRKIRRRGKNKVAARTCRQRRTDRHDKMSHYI
# cells [4] = format: functional, cell-based
# cells [5] = format: functional, cell-based; remark: listed apart in the source
# Streptokinase A = biological target: T5, Streptokinase A (Streptococcus pyogenes serotype M1, UniProt P10520); experiment: viability-normalized secreted streptokinase activity reduction – plasminogen activation absorbance, OD405, dose response (AID 1914); format: functional, Streptococcus pyogenes M1 GAS;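 further: secreted streptokinase activity via plasminogen activation per viability signal from cell pellet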
# T5 sequence (P10520 whole entry): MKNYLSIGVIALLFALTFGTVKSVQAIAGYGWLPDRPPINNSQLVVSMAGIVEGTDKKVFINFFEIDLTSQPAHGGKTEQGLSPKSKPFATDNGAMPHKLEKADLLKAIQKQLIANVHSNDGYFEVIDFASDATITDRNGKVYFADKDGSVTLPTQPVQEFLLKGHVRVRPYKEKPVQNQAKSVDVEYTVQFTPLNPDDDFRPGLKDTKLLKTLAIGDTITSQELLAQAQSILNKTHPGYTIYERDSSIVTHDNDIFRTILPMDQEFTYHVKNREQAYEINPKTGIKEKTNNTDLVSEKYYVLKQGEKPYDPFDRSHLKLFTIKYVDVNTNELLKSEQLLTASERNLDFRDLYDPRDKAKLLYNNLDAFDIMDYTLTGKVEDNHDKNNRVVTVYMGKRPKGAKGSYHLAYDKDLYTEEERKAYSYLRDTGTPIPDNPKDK
# Streptococcus = experiment: GAS UMAA2166 growth inhibition – luminescence, BacTiterGlo, counter-screen for streptokinase expression inhibitor project, dose response (AID 1915); format: functional, organism-based;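 further: potency for reduction of bacterial viability or growth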
# [6] = viability of PTEN-deleted HCT116 cells – cell-based, HCT116 PTEN knockout, dose response (AID 1047); format: functional;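 further: HCT116 colon tumor cells with PTEN knocked out; cells exposed to compound for 60 hours before readout; potency for loss of cell viability measured by luminescence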
# [7] = viability of HCT116 lacking mutant beta-catenin – cell-based, human colon tumor, dose response (AID 1045); format: functional;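 further: HCT116 colon tumor cells with beta catenin knocked out; cells exposed to compound for 60 hours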
# [8] = reduction of Shn3 3'UTR-driven luciferase in osteoblasts – cell-based, Clone20 osteoblasts, firefly luciferase, cherry-picked, dose response (AID 624132); format: functional;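 further: firefly luciferase luminescence from reporter carrying the Shn3 3'UTR in osteoblasts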
# [9] = loss of viability in HepG2 cells – cell-based, CellTiter-Glo, cherry-picked, cytotoxicity control for Shn3 inhibitor project, dose response (AID 624134); format: functional
# INS1 = experiment: INS-1E survival protection against cytokine death – cell-based, luminescence, retest, dose response (AID 449756); format: functional; conditions: Rattus norvegicus;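 further: cell death triggered by IL-1 beta plus TNF-alpha plus IFN-gamma mixture; protective hits raise ATP signal compared with cytokine alone wells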
smiles,measurement,setting,value
Cc1ccc(/C=C2\C(=O)NC(=S)N(c3cccc(F)c3)C2=O)o1,EC50,[1],63.5 µM (active)
same,EC50,[2],44.6 µM (active)
same,IC50,Large T antigen,36.7 µM (active)
COc1cc2cnc(-c3ccccc3)c(-c3cc(OC)c(OC)c(OC)c3)c2cc1OC,IC50,[3],67.2 µM (active)
O=C(Nc1cccc([N+](=O)[O-])c1)c1cnccn1,IC50,[3],5.88 µM (active)
COc1ccc(S(=O)(=O)NCCSC(C)(C)C)c(Cl)c1Cl,IC50,[3],8.61 µM (active)
CCCCNC(=O)COC(=O)c1cc(S(=O)(=O)N2CCCCCC2)ccc1OC,IC50,Protein skinhead-1,> 100 µM (inactive)
COc1ccc(C2NN=C(c3ccc(C)cc3)S2)cc1 (stereo not given),EC50,cells [4],24.6 µM (active)
same,EC50,cells [5],> 350 µM (not active)
CN(C)c1nc(SCc2ccccc2Cl)nc2c1CCCC2,IC50,Protein skinhead-1,> 100 µM (inactive)
same,EC50,Streptokinase A,14 µM (active)
same,EC50,Streptococcus,> 150 µM (not active)
COc1ccc(NC2=NC(=S)N(c3ccc(C)cc3)C23CCCCC3)cc1,EC50,[6],3.42 µM (active)
same,EC50,[7],2.47 µM (active)
C=C1C(=O)O[C@H]2[C@H]1[C@H](OC(=O)CC(=O)O[C@@H]1C[C@@H](C)[C@@H]3C=CC(=O)[C@@]3(C)[C@H]3OC(=O)C(=C)[C@H]13)C[C@@H](C)[C@H]1C=CC(=O)[C@]12C,AC50,[8],1.54 µM (active)
same,AC50,[9],> 70 µM (inactive)
same,IC50,Large T antigen,52 µM (active)
Cc1cc(-c2nnnn2-c2cc(Cl)cc(Cl)c2)no1,EC50,cells [4],> 350 µM (not active)
same,EC50,cells [5],> 350 µM (not active)
O=C(O)c1cccc(S(=O)(=O)Nc2ccc3oc(=O)sc3c2)c1,IC50,Large T antigen,46.3 µM (active)
Cc1ccc(C(=O)Nc2c3c(nn2C(C)(C)C)CS(=O)(=O)C3)cc1C,EC50,cells [4],> 350 µM (not active)
same,EC50,cells [5],> 350 µM (not active)
C=CCOCCN1C(=O)C2C3C=CC(C2C1=O)C1C2C(=O)N(CCOCC=C)C(=O)C2C31 (stereo not given),IC50,[3],19.9 µM (active)
N#Cc1ccsc1NC(=O)COC(=O)CCS(=O)(=O)c1ccccc1,IC50,[3],8.32 µM (active)
COc1ccc(CC(=O)Nc2nnc(SCc3ccccc3)s2)cc1S(=O)(=O)N1CCOCC1,IC50,Protein skinhead-1,> 100 µM (inactive)
N=c1c2c(-c3ccccc3)c(-c3ccccc3)n(Cc3ccco3)c2ncn1CCO,EC50,[6],1.15 µM (active)
same,EC50,[7],1.27 µM (active)
CCn1c(SCC(=O)Nc2cc(C)on2)nc2sc3c(c2c1=O)CCCC3,EC50,[6],6.49 µM (active)
same,AC50,INS1,8.67 µM (active)
same,EC50,[7],13.2 µM (active)
